Measurements as given in publication PMC7058083, “Structural basis of ligand binding modes at the human formyl peptide receptor 2” (Nature Communications, 2020).
Substitutions are numbered along the chain they refer to. Residues, ends and D or L forms follow the SMILES beside them. *: point of attachment. For = O=C*

Legend:
Test in all cases: Competition binding of fMLFK with WK(FITC)YMVm, flow cytometry on HEK293F cells
[1] = biological target: T1, wild-type (WT) and mutant FPR2 (Homo sapiens, UniProt P25090, L164A); conditions: FPR2 L164A; mean ± s.e.m., n=3; SEM
T1 construct: expressed in transfected cells; host or cells: HEK293F
T1 sequence (P25090 1-351 L164A): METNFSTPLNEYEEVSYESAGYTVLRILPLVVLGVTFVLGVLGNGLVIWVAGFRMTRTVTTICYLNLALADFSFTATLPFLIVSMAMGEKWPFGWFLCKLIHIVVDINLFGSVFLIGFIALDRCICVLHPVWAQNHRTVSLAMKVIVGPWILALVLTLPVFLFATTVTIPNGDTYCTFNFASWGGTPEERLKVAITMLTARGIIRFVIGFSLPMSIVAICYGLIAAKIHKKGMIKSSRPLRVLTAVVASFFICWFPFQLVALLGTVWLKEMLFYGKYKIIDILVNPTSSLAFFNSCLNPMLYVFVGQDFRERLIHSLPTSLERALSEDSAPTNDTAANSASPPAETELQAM
Protocol: (§1) Flag-tagged wild-type and mutant FPR2s were cloned into the pTT5 vector and expressed in HEK293F cells. The cells were harvested, and washed with Hanks’ Balanced Salt Solution (HBSS) buffer supplemented with 0.5% bovine serum albumin and 20 mM HEPES, pH 7.4. The cells were then resuspended in the same buffer to the final concentration of 1 × 10^6 cells per ml. The cell-surface expression was measured as mentioned above. […] Mean fluorescent intensity of each well was then read by a FCM (flow cytometry) reader (Millipore). […] For competitive binding of fMLFK, cells were plated in 96-well plates (100,000 cells per well), and incubated with WK(FITC)YMVm at 4 °C for 1 h. The following concentrations of WK(FITC)YMVm were used: 10 nM (wild type, L81^2.60F, E89G, and V105^3.32A), 30 nM (D281^7.32G), 40 nM (H102^3.29F, V160^4.60A, L268^ECL3A, N285^7.36A, and F292^7.43A), and 100 nM (L164^4.64A and T177A). Then increasing concentrations of fMLFK (100 nM–1 mM) were added, and incubated for another 1 h on ice. Mean fluorescent intensity values were measured by flow cytometry. Data were analyzed using Prism 7.0.

[2] = biological target: T2, wild-type (WT) and mutant FPR2 (Homo sapiens, UniProt P25090); conditions: FPR2 WT; mean ± s.e.m., n=5; SEM
T2 construct: expressed in transfected cells; host or cells: HEK293F
T2 sequence (P25090 1-351): T1 sequence (P25090 1-351 L164A) with A164L
Protocol: as §1

[3] = biological target: T3, wild-type (WT) and mutant FPR2 (Homo sapiens, UniProt P25090, E89G); conditions: FPR2 E89G; mean ± s.e.m., n=3; SEM
T3 construct: expressed in transfected cells; host or cells: HEK293F
T3 sequence (P25090 1-351 E89G): T1 sequence (P25090 1-351 L164A) with E89G, A164L
Protocol: as §1

[4] = biological target: T4, wild-type (WT) and mutant FPR2 (Homo sapiens, UniProt P25090, T177A); conditions: FPR2 T177A; mean ± s.e.m., n=4; SEM
T4 construct: expressed in transfected cells; host or cells: HEK293F
T4 sequence (P25090 1-351 T177A): T1 sequence (P25090 1-351 L164A) with A164L, T177A
Protocol: as §1

[5] = biological target: T5, wild-type (WT) and mutant FPR2 (Homo sapiens, UniProt P25090, D281G); conditions: FPR2 D281G; mean ± s.e.m., n=3; SEM
T5 construct: expressed in transfected cells; host or cells: HEK293F
T5 sequence (P25090 1-351 D281G): T1 sequence (P25090 1-351 L164A) with A164L, D281G
Protocol: as §1

pKi, competition binding [1]: 4.16 ± 0.25 | pKi, competition binding [2]: 4.08 ± 0.19 | pKi, competition binding [3]: 3.49 ± 0.31 | pKi, competition binding [4]: 3.97 ± 0.21 | pKi, competition binding [5]: 4.66 ± 0.16
Structure (SMILES): CSCC[C@H](NC=O)C(=O)N[C@@H](CC(C)C)C(=O)N[C@@H](Cc1ccccc1)C(=O)N[C@@H](CCCCN)C(=O)O [fMLFK] (For-MLFK-OH)
